We go through nine compounds from patent publication US10669290B2, “Beta-lactamase inhibitors” (priority 2012, dated 2020).

Where two headings read alike, the source gives them in different places.

Holding throughout (format): cell-based
One assay concerns E. cl 144200 p99 AmpC. Description: Broth microdilution MIC, E. cloacae 144200. Particulars: Enterobacter cloacae. The source says:
(§1) To determine the ability of test compounds to potentiate the inhibition of the growth of bacterial strains that produce beta-lactamase enzymes, classic cell based broth microdilution MIC assays were employed. Six bacteria strains producing beta-lactamase enzymes were used: E. coli expressing the Class A Extended Spectrum Beta-Lactamase (ESBL) CTX-M-15, E. cloacae expressing the Class C P99, K. pneumoniae expressing the Class A carbapenemase KPC-2, P. aeruginosa expressing the Class B carbapenemase VIM-2, K. pneumoniae expressing the class A carbapenemase KPC-2 and the class B carbapenemase VIM-4, and S. aureus producing the Class A penicillinase PC-1. The assay was conducted in Cation Adjusted Mueller Hinton Broth (CAMHB, BD #212322, BD Diagnostic Systems, Sparks, Md.). Bacteria strains were grown for 3-5 hours in CAMBH broth. Test compounds were added to a microtiter plate in 2-fold serial dilutions in CAMHB in a final concentration range of 32 μg/mL to 0.25 μg/ml. An overlay of CAMHB containing a Beta-lactam was added to the compounds at a final static concentration of 4 μg/ml. […] In addition to the titration of test compounds the MICs of a panel of control beta-lactams is also tested to ensure the strains are behaving consistently from test to test. Once the test compound and antibiotics are added the plates can be inoculated according to CLSI broth microdilution method. After inoculation the plates are incubated for 16-20 hours at 37° C. then the Minimal Inhibitory Concentration (MIC) of the test compound is determined visually.
(§2) Using the methodology described above in EXAMPLE III, exemplary compounds for Formula I or Formula Ia were evaluated for their ability to inhibit the growth of β-lactamase producing bacteria in the presence of a β-lactam antibiotic.

The subject of the next assay is E. coli ESBL4 CTX-M-15. Description: Broth microdilution MIC, E. coli ESBL4. The following applies: Escherichia coli.
From the text: as §1, §2

The test system of a further assay is K.P. 156319 KPC-3. Nature of the assay: Broth microdilution MIC, K. pneumoniae 156319. The following applies: Klebsiella pneumoniae; fixed meropenem 4 μg/mL, CAMHB, 16-20 hours 37° C.; read-out: MIC of exemplary compounds in presence of fixed β-lactams, Fixed Mero, K.P. 156319 KPC-3. (In broth dilution the organism is exposed to a series of concentrations in liquid medium.)

The next assay concerns S. aureus MSSA-7 PC-1. Nature of the assay: Broth microdilution MIC, S. aureus MSSA-7. The following applies: Staphylococcus aureus, fixed piperacillin 4 μg/mL, CAMHB, 16-20 hours 37° C., read-out: MIC of exemplary compounds in presence of fixed β-lactams, Fixed Pip, S. aureus MSSA-7 PC-1.
From the text: as §1, §2

The test system of the next assay is K.P. A-1797 KPC-2 VIM-4. Description: Broth microdilution MIC, K. pneumoniae A-1797. Particulars: Klebsiella pneumoniae; fixed meropenem 4 μg/mL, CAMHB, 16-20 hours 37° C.; read-out: MIC of exemplary compounds in presence of fixed β-lactams, Fixed Mero, K.P. A-1797 KPC-2 VIM-4.
From the text: as §1, §2

The subject of another assay is P. aerug. Ps296 VIM-2. Description: Broth microdilution MIC, P. aeruginosa Ps296. The following applies: Pseudomonas aeruginosa; fixed meropenem 4 μg/mL, CAMHB, 16-20 hours 37° C.; read-out: MIC of exemplary compounds in presence of fixed β-lactams, Fixed Mero, P. aerug. Ps296 VIM-2.
From the text: as §1, §2

The mark [1] stands for this setting: fixed ceftazidime 4 μg/mL, CAMHB, 16-20 hours 37° C., read-out: MIC of exemplary compounds in presence of fixed β-lactams, Fixed CAZ, E. cl 144200 p99 AmpC.
The mark [2] stands for this setting: ESBL4CTXM15, fixed ceftazidime 4 μg/mL, CAMHB, 16-20 hours 37° C., read-out: MIC of exemplary compounds in presence of fixed β-lactams, Fixed CAZ, E. coli ESBL4 CTX-M-15.

Turning to `CC(C)(O/N=C(\C(=O)N[C@@H]1C(=O)N2C(C(=O)[O-])=C(C[n+]3ccccc3)CS[C@H]12)c1csc(N)n1)C(=O)O` [Ceftazidime, reference compound], the MIC – broadly, the least concentration at which growth counts as inhibited – in the assay on E. cl 144200 p99 AmpC (read-out: MIC alone) is 128 µg/mL; in the assay with E. coli ESBL4 CTX-M-15 (ESBL4CTXM15, read-out: MIC alone), over 128 µg/mL.

With `NC[C@H]1CC[C@H](C(=O)N[C@H]2Cc3cccc(C(=O)O)c3OB2O)CC1` [Example 1, (R)-3-(trans-4-(aminomethyl)cyclohexanecarboxamido)-2-hydroxy-3,4-dihydro-2H-benzo[e][1,2]oxaborinine-8-carboxylic acid], the MIC with E. cl 144200 p99 AmpC (setting [1]) is under 4 µg/mL; with K.P. 156319 KPC-3, under 4 µg/mL; in the assay on S. aureus MSSA-7 PC-1, 8 to 32 µg/mL; with K.P. A-1797 KPC-2 VIM-4, under 4 µg/mL; in the assay with P. aerug. Ps296 VIM-2, under 4 µg/mL; with E. coli ESBL4 CTX-M-15 (setting [2]), under 4 µg/mL.

For the compound `N[C@H]1CC[C@H](C(=O)N[C@H]2Cc3cccc(C(=O)O)c3OB2O)CC1` [Example 2, (R)-3-(trans-4-aminocyclohexanecarboxamido)-2-hydroxy-3,4-dihydro-2H-benzol[e][1,2]oxaborinine-8-carboxylic acid], the MIC is under 4 µg/mL in the assay with E. cl 144200 p99 AmpC (setting [1]); under 4 µg/mL in the assay on K.P. 156319 KPC-3; 8 to 32 µg/mL in the assay with S. aureus MSSA-7 PC-1; under 4 µg/mL in the assay with K.P. A-1797 KPC-2 VIM-4; under 4 µg/mL in the assay with P. aerug. Ps296 VIM-2; under 4 µg/mL in the assay with E. coli ESBL4 CTX-M-15 (setting [2]).

For `NC[C@H]1CC[C@H](CC(=O)N[C@H]2Cc3cccc(C(=O)O)c3OB2O)CC1` [Example 3], the MIC was under 4 µg/mL in the assay with E. cl 144200 p99 AmpC (setting [1]); under 4 µg/mL with K.P. 156319 KPC-3; under 4 µg/mL with S. aureus MSSA-7 PC-1; 8 to 32 µg/mL in the assay with K.P. A-1797 KPC-2 VIM-4; under 4 µg/mL in the assay with P. aerug. Ps296 VIM-2; under 4 µg/mL with E. coli ESBL4 CTX-M-15 (setting [2]).

Consider `N=C(N)NC[C@H]1CC[C@H](CC(=O)N[C@H]2Cc3cccc(C(=O)O)c3OB2O)CC1` [Example 4, (R)-3-(2-(trans-4-(guanidinomethyl)cyclohexyl)acetamido)-2-hydroxy-3,4-dihydro-2H-benzo[e][1,2]oxaborinine-8-carboxylic acid], for which the MIC with E. cl 144200 p99 AmpC (setting [1]) is under 4 µg/mL; with K.P. 156319 KPC-3, under 4 µg/mL; in the assay with S. aureus MSSA-7 PC-1, under 4 µg/mL; in the assay with K.P. A-1797 KPC-2 VIM-4 it was 8 to 32 µg/mL; with P. aerug. Ps296 VIM-2, under 4 µg/mL; with E. coli ESBL4 CTX-M-15 (setting [2]) it was under 4 µg/mL.

Take `CN(C)CC(=O)NC[C@H]1CC[C@H](CC(=O)N[C@H]2Cc3cccc(C(=O)O)c3OB2O)CC1` [Example 5, (R)-3-(2-(trans-4-((2-(dimethylamino)acetamido)methyl)cyclohexyl)acetamido)-2-hydroxy-3,4-dihydro-2H-benzo[e][1,2]oxaborinine-8-carboxylic acid]: the MIC in the assay with E. cl 144200 p99 AmpC (setting [1]) was under 4 µg/mL; in the assay with K.P. 156319 KPC-3, 8 to 32 µg/mL; in the assay on S. aureus MSSA-7 PC-1, under 4 µg/mL; in the assay on K.P. A-1797 KPC-2 VIM-4, over 32 µg/mL; with P. aerug. Ps296 VIM-2 it was under 4 µg/mL; with E. coli ESBL4 CTX-M-15 (setting [2]), under 4 µg/mL.

With `N[C@H]1CC[C@H](CC(=O)N[C@H]2Cc3cccc(C(=O)O)c3OB2O)CC1` [Example 6, (R)-3-(2-(trans-4-aminocyclohexyl)acetamido)-2-hydroxy-3,4-dihydro-2H-benzol[e][1,2]oxaborinine-8-carboxylic acid], the MIC with E. cl 144200 p99 AmpC (setting [1]), in the assay on K.P. 156319 KPC-3, in the assay on S. aureus MSSA-7 PC-1, in the assay with K.P. A-1797 KPC-2 VIM-4, in the assay with P. aerug. Ps296 VIM-2 and with E. coli ESBL4 CTX-M-15 (setting [2]) was under 4 µg/mL each time.

Consider `NCC1CCC(=CC(=O)N[C@H]2Cc3cccc(C(=O)O)c3OB2O)CC1` (stereo partly drawn) [Example 11, (3R)-3-(2-(4-(aminomethyl)cyclohexylidene)acetamido)-2-hydroxy-3,4-dihydro-2H-benzo[e][1,2]oxaborinine-8-carboxylic acid], for which the minimum inhibitory concentration (MIC) was under 4 µg/mL in the assay on E. cl 144200 p99 AmpC (setting [1]); under 4 µg/mL in the assay on K.P. 156319 KPC-3; 8 to 32 µg/mL in the assay on K.P. A-1797 KPC-2 VIM-4; 8 to 32 µg/mL in the assay on P. aerug. Ps296 VIM-2; under 4 µg/mL in the assay on E. coli ESBL4 CTX-M-15 (setting [2]).

Consider `NCC1CCC(CC(=O)N[C@H]2Cc3cccc(C(=O)O)c3OB2O)(C[N+](=O)[O-])CC1` (stereo partly drawn) [Example 12, (R)-3-(2-(4-(aminomethyl)-1-(nitromethyl)cyclohexyl)acetamido)-2-hydroxy-3,4-dihydro-2H-benzo[e][1,2]oxaborinine-8-carboxylic acid], for which the MIC was under 4 µg/mL in the assay with E. cl 144200 p99 AmpC (setting [1]); 8 to 32 µg/mL with K.P. 156319 KPC-3; over 32 µg/mL with K.P. A-1797 KPC-2 VIM-4; 8 to 32 µg/mL in the assay on P. aerug. Ps296 VIM-2; under 4 µg/mL in the assay on E. coli ESBL4 CTX-M-15 (setting [2]).
